{"source": "patent US10675286B2", "about": "“Heterocyclic compounds and uses thereof” (Infinity Pharmaceuticals, Inc., priority 2014, dated 2020)", "key": {"Human hep": {"test_system": "Human hep", "assay": "Human hep viability (ADME characteristics, Table 25)", "format": "cell-based"}, "[1]": {"test_system": "bone marrow cells differentiating into MDSCs", "assay": "Myeloid Derived Suppressor Cell differentiation assay (VEGF, ARG1)", "format": "cell-based", "experimental": "A similar experiment was performed on bone marrow cells differentiating into MDSCs."}, "Cytochrome P450 isoforms": {"test_system": "Cytochrome P450 isoforms", "assay": "Cytochrome P450 inhibition (ADME characteristics, Table 25)", "format": "in vitro ADME", "details": "main Cytochrome P450 isoforms", "text": "(§1) These properties indicate the compound's suitability for in vivo administration."}, "[2]": {"test_system": "RANKL driven differentiation of osteoclasts", "assay": "Osteoclast differentiation assay (TRAP) from bone marrow macrophages", "format": "cell-based, mouse", "details": "6 days", "experimental": "Long bones from young C57B6 mice were harvested and bone marrow was extruded by gentle lavage of the bone marrow cavities with a 28 gage needle. The cells were screened, and red blood cells were removed using red blood cell lysis buffer (Sigma). Bone marrow cells were differentiated to macrophages using 20 ng/ml mouse MCSF (RnD systems) for 3 days (RPMI and 20% FCS). The cell were washed with PBS, and lifted with Accutase for 10 minutes.\nThe bone marrow macrophage cells were plated at 150,000 cells per well in a 96 well plate in a MEM 10% FCS. […] Then 25 ng/ml mouse MCSF with or without mouse RANKL (100 ng/ml, RnD systems) was added for 6 days. Media changes (including drugs) were done at day 3 and day 5. The cells were then fixed and stained with the tartrate resistant acid phosphatase (TRAP) assay kit from Sigma according to the manufactures instructions. TRAP positive cells (osteoclasts and cells undergoing an osteoclastic differentiation) in a transect of the triplicate wells (at 20× […]) were manually counted by going through the widest part of each well."}, "4T1 breast cancer": {"test_system": "4T1 breast cancer", "assay": "Subcutaneous 4T1 breast cancer model", "format": "in vivo"}, "[3]": {"assay": "Pharmacokinetics in rodent and non-rodent animal species (ADME characteristics, Table 25)", "text": "as §1"}, "GL-261 glioma": {"test_system": "GL-261 glioma", "assay": "GL-261 glioma model, Compound BB with or without temozolomide", "format": "in vivo, mouse", "details": "Compound BB 15 mg/kg QD PO, from start or following temozolomide, vs vehicle", "experimental": "TMZ was dosed IP 1×/day for 7 days.\nAnimals: C57 Albino mice (male) from Jackson Labs, n=80. Parameters Evaluated:\nIn life: Mice were dosed QD with Compound BB. Temozolomide was dosed QD IP, for 7 days. Tumor measurements and bodyweights were taken 2×/week, but caliper and xenogen measurements.\nEnd point analysis: Tumors were cut in half. One half was cut in half again with ½ fixed in 10% NBF the other was frozen in OCT for frozen sections. The remaining half was processed to single cell suspention and evaluated by FACS.\nPD satellite group—8 mice from the TMZ treated mice and 8 mice from the vehicle treated mice were sacrificed on day 7 post treatment. Tumors were processed to single cell suspention and evaluated by FACS."}, "[4]": {"assay": "Oral pharmacokinetics of Compound BB in dog", "format": "in vivo", "details": "5 mg/kg oral", "text": "Compound BB's oral exposure is high in rat, dog and monkey. Good oral bioavailability and low clearance in rodent and non-rodent animal species results in high oral exposure."}, "[5]": {"assay": "Pharmacokinetics of Compound BB, single and repeat oral dose in CB6F1 female mice", "format": "in vivo, mouse", "details": "CB6F1 female mice, 2, 7.5, 15 mg/kg PO", "experimental": "Animals were weighed daily prior to dosing. […] On subsequent dosing days, the animals' condition was noted prior to dosing; the animals were observed within 4 hours of dosing, and at the end of the day.\nSamples were collected at pre-dose 0.25, 0.5, 1, 2, 4, 6 and 24 h following the first dose on day 1 and pre-dose (trough), 0.25, 0.5, 1, 2, 4, 6 and 24 h following the final dose on day 3. Animals received a single oral dose daily for 3 consecutive days. Blood was collected by retro-orbital bleeding for all time points on day 1. All other blood sampling was collected by a cardiac puncture. Blood was collected into K2EDTA tubes and placed on wet ice. Within 15 min of collection, the sample was centrifuged at 10,000 rpm at 4° C. for 10 min in a bench top centrifuge and the plasma transferred to a new microcentrifuge tube."}, "CT26 colon cancer": {"test_system": "CT26 colon cancer", "assay": "CT26 colon cancer model", "format": "in vivo, mouse", "details": "CT26 subcutaneous tumors"}, "[6]": {"test_system": "IL-8 induced neutrophil migration", "assay": "IL-8 driven murine air pouch model", "format": "in vivo", "details": "mouse; Compound BB 0.1, 0.3, 1, 3 mg/kg; Compound AA 10, 25, about 50 mg/kg; vs vehicle", "text": "IL-8 chemoattracts and activates neutrophils."}, "[7]": {"test_system": "CXCL12 stimulated pAKT S473 in T cells and monocytes", "assay": "Ex vivo whole blood CXCL12 stimulation of phospho-AKT, LLC-bearing mice", "format": "in vivo, mouse", "details": "LLC-bearing mice, 3, 7.5 or 15 mg/kg QD PO 12 days, 2 h post dose", "experimental": "C57 BL/6 Albino mice were implanted with 1×10^6 cells in a SC injection in the hind flank. The cell implant material was generated from brei that was passaged from mouse to mouse. Treatment started when tumors were between 160-180 mm^3. Mice were dosed for 12 days, QD, PO with vehicle, 15, 7.5 or 3 mg/kg. On day 12 mice were dosed and terminal blood was collected 2 h post dose by cardiac stick collection. Blood was placed in EDTA K2 collection tube and stored at room temp for PD analysis.\nBlood from each animal was aliquotted into 2 plates and warmed to 37° C. degrees. PBS was added to one plate as an unstimulated control. Murine CXCL12/SDF-1 was added to the second plate to a final concentration of 800 ng/mL and plate was returned to the 37° C. degree block. After 2 minutes of incubation, blood was lysed and fixed using paraformaldehyde. Samples were washed and frozen until flow cytometric analysis. T cells were gated using an antibody to CD3 and monocytes were gated as LY6G^− LY6C^high. Intracellular pAKT S473 was measured and percent positive was used for graphing."}, "[8]": {"assay": "In vitro toxicology studies"}, "GL261-Luc": {"test_system": "GL261-Luc", "assay": "GL261-Luc murine glioblastoma subcutaneous model", "format": "in vivo, mouse", "details": "GL-261 syngeneic glioma, 15 mg/kg QD, PO", "text": "In some cases, the GL261 glioblastoma model is used. This is a syngeneic glioblastoma multiform model run subcutaneously or orthotopically, and is described in more detail in the examples provided herein. In some embodiments, the model has previously been treated with radiation therapy but there is a recurrence of the cancer. Compounds provided herein can be administered to models with a recurrence or relapse of cancer after prior treatment."}}, "note": "Entries after “also recorded” stand apart in the source; their conditions may differ."}
{"smiles": "C[C@H](NC(=O)c1c(N)nn2cccnc12)c1cc2cccc(C#Cc3cnn(C)c3)c2c(=O)n1-c1ccccc1", "note": "[Compound BB]", "values": [{"measurement": "IC50", "setting": "Human hep", "value": "10 to 25", "unit": "µM"}, {"measurement": "VEGF and ARG1 in MDSC differentiation assay (FIG. 24)", "setting": "[1]", "value": "suppressed both VEGF (FIG. 24A) and ARG1 (FIG. 24B)"}, {"measurement": "CYP inhibition", "setting": "Cytochrome P450 isoforms", "value": "does not substantially inhibit CYP; also recorded: low potential for reversible inhibition"}, {"measurement": "RANKL driven differentiation of osteoclasts (TRAP positive cells, FIG. 17)", "setting": "[2]", "value": "prevents RANKL driven differentiation of osteoclasts"}, {"measurement": "tumor growth", "setting": "4T1 breast cancer; co-administration with docetaxel, paclitaxel, or 5-FU", "value": "further reduction in tumor growth"}, {"measurement": "activity in subcutaneous 4T1 breast cancer model", "setting": "4T1 breast cancer; single agent", "value": "single agent activity"}, {"measurement": "Clearance and half-life in vivo", "setting": "[3]", "value": "low clearance and a long half-life in vivo"}, {"measurement": "Tumor volume (FIGS. 53, 54)", "setting": "GL-261 glioma", "value": "effective in reducing the tumor volume; also recorded: significant reduction in tumor volume"}, {"measurement": "Oral exposure (plasma concentrations within 24 hours, FIG. 43)", "setting": "[4]", "value": "high"}, {"measurement": "Stability in serum (24-hour time course of unbound plasma concentration)", "setting": "[5]", "value": "good stability in serum"}, {"measurement": "Monocytic iMCs in tumor", "setting": "CT26 colon cancer", "value": "decreased"}, {"measurement": "IL-8 induced neutrophil migration into air pouch", "setting": "[6]", "value": "blocks IL-8 induced neutrophil migration"}, {"measurement": "Ex vivo whole blood CXCL12 stimulation of phospho-AKT in T cells (FIG. 58)", "setting": "[7]", "value": "inhibits the ex vivo whole blood stimulation of phosphor-AKT in T cells"}, {"measurement": "Ex vivo whole blood CXCL12 stimulation of phospho-AKT in monocytes (FIG. 59)", "setting": "[7]", "value": "inhibits the ex vivo whole blood stimulation of phosphor-AKT in monocytes"}, {"measurement": "In vitro toxicology", "setting": "[8]", "value": "expected to have very low toxicity"}, {"measurement": "Total flux (FIG. 47B)", "setting": "GL261-Luc", "value": "reduced the total flux"}, {"measurement": "Tumor volume (FIG. 47A)", "setting": "GL261-Luc", "value": "reduced tumor volume"}]}
